pIC50: −log10 of the molar value.
Key:
[1] = tested on: SK-MES-1; test: Anticancer activity against human SKMES1 cells after 3 days by MTT assay; format: functional, cell-based; conditions: SK-MES-1, 72 h
[2] = tested on: AGS; test: Anticancer activity against human AGS cells after 3 days by MTT assay; format: functional, cell-based; conditions: 72 h
[3] = tested on: J82; test: Anticancer activity against human J82 cells after 3 days by MTT assay; format: functional, cell-based; conditions: J82, 72 h
[4] = tested on: MRC5; test: Anticancer activity against human MRC5 cells after 3 days by MTT assay; format: ADME, cell-based; conditions: MRC5, 72 h
[5] = tested on: MRC5; test: Selectivity index, ratio IC50 for human MRC5 cells to IC50 for human SKMES1 cells; format: functional
[6] = tested on: MRC5; test: Selectivity index, ratio IC50 for human MRC5 cells to IC50 for human AGS cells; format: functional
[7] = tested on: MRC5; test: Selectivity index, ratio IC50 for human MRC5 cells to IC50 for human J82 cells; format: functional

Structure (SMILES)	pIC50 [1]	pIC50 [2]	pIC50 [3]	pIC50 [4]	Ratio IC50 [5]	Ratio IC50 [6]	Ratio IC50 [7]
COc1ccc(OC)c(NC2=CC(=O)c3c(c(C)nc4c3C(=O)CCC4)C2=O)c1	4.66	5.85	5.15	5.30	–	–	–
O=C1CCCc2nc(-c3ccccc3)c3c(c21)C(=O)C=CC3=O	4.14	4.86	4.24	4.51	–	–	–
O=C1C=C(Nc2ccccc2)C(=O)c2c1cnc1c2C(=O)CCC1	5.12	5.41	5.09	5.23	–	–	–
Cc1nc2c(c3c1C(=O)C(Nc1ccc(F)cc1)=CC3=O)C(=O)CCC2	5.48	6.10	5.42	5.52	–	–	–
CCN(C1=CC(=O)c2cnc3c(c2C1=O)C(=O)CCC3)c1ccccc1	4.75	4.77	4.71	4.71	–	–	–
Cc1nc2c(c3c1C(=O)C(Nc1ccccc1)=CC3=O)C(=O)CCC2	5.24	6.19	5.38	5.70	–	–	–
COc1cc([C@@H]2c3cc4c(cc3[C@@H](O[C@@H]3O[C@@H]5CO[C@@H](C)O[C@H]5[C@H](O)[C@H]3O)[C@H]3COC(=O)[C@H]23)OCO4)cc(OC)c1O [ETOPOSIDE]	–	–	6.10	–	–	–	–
COc1ccccc1NC1=CC(=O)c2c(c(C)nc3c2C(=O)CCC3)C1=O	5.37	6.66	5.43	5.80	–	–	–
O=C1CCCc2nc(-c3ccco3)c3c(c21)C(=O)C=CC3=O	4.01	4.17	4.09	4.23	–	–	–
CCN(C1=CC(=O)c2c(cnc3c2C(=O)CCC3)C1=O)c1ccccc1	4.93	5.36	4.82	5.07	–	–	–
O=C1CCCc2nc(-c3ccsc3)c3c(c21)C(=O)C=CC3=O	4.12	4.43	< 4.00	4.15	–	–	–
COc1ccc(NC2=CC(=O)c3c(c(C)nc4c3C(=O)CCC4)C2=O)cc1	5.39	5.92	5.52	5.28	–	–	–
O=C1C=CC(=O)c2c1cnc1c2C(=O)CCC1	–	–	4.80	–	–	–	–
COc1ccc(OC)c(NC2=CC(=O)c3cnc4cccc(O)c4c3C2=O)c1	4.87	4.70	6.21	4.76	–	–	28
CN(C1=CC(=O)c2c(cnc3c2C(=O)CCC3)C1=O)c1ccccc1	4.97	5.33	4.89	5.12	–	–	–
COc1ccc(NC2=CC(=O)c3cnc4c(c3C2=O)C(=O)CCC4)cc1	5.43	5.66	5.40	5.32	–	–	–
CN(C1=CC(=O)c2cnc3c(c2C1=O)C(=O)CCC3)c1ccccc1	5.06	5.08	5.08	5.14	–	–	–
COc1ccc(OC)c(NC2=CC(=O)c3cnc4c(c3C2=O)C(=O)CCC4)c1	4.67	4.48	4.25	4.33	–	–	–

Continued by rising pIC50 [1], values first:

pIC50 [1]	pIC50 [2]	Structure (SMILES)	pIC50 [3]	pIC50 [4]	Ratio IC50 [5]	Ratio IC50 [6]	Ratio IC50 [7]
5.49	5.92	Cc1nc2c(c3c1C(=O)C(Nc1ccc(O)cc1)=CC3=O)C(=O)CCC2	5.72	5.59	–	–	–
5.51	6.24	O=C1CCCc2nc(-c3ccco3)c3c(c21)C(=O)C=C(Nc1ccccc1)C3=O	5.62	5.57	–	–	–
5.54	6.46	O=C1CCCc2nc(-c3ccsc3)c3c(c21)C(=O)C=C(Nc1ccccc1)C3=O	5.60	5.55	6	6	–
5.55	6.48	O=C1CCCc2nc(-c3ccccc3)c3c(c21)C(=O)C=C(Nc1ccccc1)C3=O	5.54	5.57	6	6	–
5.70	6.33	COc1ccc(NC2=CC(=O)c3c(cnc4c3C(=O)CCC4)C2=O)cc1	5.55	5.59	–	–	–
5.74	6.49	COc1ccc(OC)c(NC2=CC(=O)c3c(cnc4c3C(=O)CCC4)C2=O)c1	5.60	5.59	6	6	–
5.89	6.64	O=C1C(Nc2ccccc2)=CC(=O)c2c1cnc1c2C(=O)CCC1	5.68	5.85	6	6	–
6.20	6.74	COc1ccc(OC)c(NC2=CC(=O)c3c(cnc4cccc(O)c34)C2=O)c1	5.85	6.28	–	–	–

— ChEMBL document CHEMBL1811880, “Studies on quinones. Part 47. Synthesis of novel phenylaminophenanthridinequinones as potential antitumor agents” (Eur J Med Chem, 2011)
